Some test systems named below: HCC 2998; SK-OV-3; U-251; SK-MEL-2; HCT-116; SK-MEL-5; KM-20L2; OVCAR-8; HOP-62; NCI-H460; A549; SF-268; K562; HCT-15; TK-10; NCI-H226.
Holding throughout (test): NCI tumour cell line growth inhibition, 48 h

This note sets out measurements from ChEMBL document CHEMBL1201862, “PubChem BioAssay data set” (2004).

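Protocol summary: plate cells (96-well), add compound at 5 concentrations, incubate 48 h, interpolate endpoints linearly. At the GI50, growth is halved.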 Calls of active or inactive are those of the source. Cut-off read from the data, not from the text of the source: active = GI50 up to about 1.1 µM and inactive = higher.

With `O=C(/C=N/c1ccccc1[S-])c1ccco1.O=C(/C=N/c1ccccc1[S-])c1ccco1.[Zn+2]`, the GI50 with HCC 2998 was 10 µM (inactive); with SK-OV-3, 27.9 µM (inactive); with U-251, 4.23 µM (inactive); with SK-MEL-2 it was 15.8 µM (inactive); in the experiment with HCT-116, 4.06 µM (inactive); in the experiment with SK-MEL-5, 16.9 µM (inactive). The GI50 with KM-20L2 is 15.3 µM (inactive); with OVCAR-8, 6.37 µM (inactive); in the experiment on HOP-62, 6 µM (inactive); in the experiment on NCI-H460, 3.87 µM (inactive); with A549, 3.98 µM (inactive); with SF-268, 17.9 µM (inactive). In addition, the GI50 in the experiment with K562 is 18.9 µM (inactive); with HCT-15, 8.59 µM; in the experiment with TK-10, 16.7 µM (inactive).

For the compound `COc1cccc(C2=NC(C(C)C)CO2)c1` (configuration not stated), the GI50 with NCI-H226, in the experiment with HCC 2998, in the experiment on SK-OV-3, in the experiment on SK-MEL-2, in the experiment on SK-MEL-5 and with KM-20L2 was > 100 µM (inactive) throughout. In addition, the GI50 in the experiment on OVCAR-8, in the experiment on HOP-62, in the experiment with NCI-H460, in the experiment on A549, with SF-268 and in the experiment with K562 was > 100 µM (inactive) in each case. In addition, the GI50 is over 100 µM in the experiment on HCT-15 and > 100 µM (inactive) with TK-10.

Take `Cc1nn(-c2nc3ccccc3s2)c2c1C(=O)c1ccccc1-2`: the GI50 in the experiment with HCC 2998 is > 100 µM (inactive); with SK-OV-3, > 100 µM (inactive); in the experiment with U-251, 60.7 µM (inactive); in the experiment with SK-MEL-2, > 100 µM (inactive); with HCT-116, > 100 µM (inactive); in the experiment on SK-MEL-5, > 100 µM (inactive). For the same compound, the GI50 in the experiment on KM-20L2, in the experiment on HOP-62, in the experiment with NCI-H460, in the experiment on A549, in the experiment with SF-268 and in the experiment with K562 was > 100 µM (inactive) throughout. Also, the GI50 is over 100 µM in the experiment on HCT-15 and > 100 µM (inactive) with TK-10.

Regarding `COC1OC(C)C(OC(=O)C(C)(C)C)C(OS(=O)(=O)c2ccc(C)cc2)C1OS(=O)(=O)c1ccc(C)cc1` (configuration not stated), the GI50 in the experiment with NCI-H226, in the experiment on HCC 2998, in the experiment on SK-OV-3, with U-251, in the experiment on SK-MEL-2 and in the experiment with HCT-116 was > 100 µM (inactive) in each case. In addition, the GI50 in the experiment with SK-MEL-5, in the experiment on KM-20L2, in the experiment with OVCAR-8, with HOP-62, in the experiment with NCI-H460 and in the experiment on A549 was > 100 µM (inactive) throughout. The GI50 with SF-268 was > 100 µM (inactive); in the experiment with K562, > 100 µM (inactive); in the experiment on HCT-15, over 100 µM.

On to `CCCCCCCCCCCCCC(=S)N/C=C/OC`, for which the GI50 is 43.8 µM (inactive) in the experiment with NCI-H226; 19 µM (inactive) with HCC 2998; > 100 µM (inactive) in the experiment with SK-OV-3; 21.4 µM (inactive) in the experiment with U-251; 32 µM (inactive) in the experiment on SK-MEL-2; 30.5 µM (inactive) with HCT-116. Moreover, the GI50 is 25 µM (inactive) in the experiment with SK-MEL-5; 40.1 µM (inactive) in the experiment with KM-20L2; 38 µM (inactive) with OVCAR-8; 48 µM (inactive) in the experiment with HOP-62; 29.3 µM (inactive) in the experiment on NCI-H460; 37.4 µM (inactive) in the experiment on A549. Moreover, the figures for the GI50 with SF-268, with HCT-15 and in the experiment with TK-10 were 43 µM (inactive), 22.9 µM and > 100 µM (inactive), respectively.

Take `COc1ccc(/C=C/c2cc(OC)c(O[Si](C)(C)C(C)(C)C)c(OC)c2)cc1`: the GI50 with NCI-H226 is 30.3 µM (inactive); in the experiment on HCC 2998, > 100 µM (inactive); with SK-OV-3 it was > 100 µM (inactive); in the experiment with U-251, 98.6 µM (inactive); with SK-MEL-2, > 100 µM (inactive); with HCT-116, 55.6 µM (inactive). Moreover, the GI50 is 54.1 µM (inactive) in the experiment with SK-MEL-5; > 100 µM (inactive) with KM-20L2; > 100 µM (inactive) with OVCAR-8; > 100 µM (inactive) in the experiment with HOP-62; 42.2 µM (inactive) in the experiment on NCI-H460; > 100 µM (inactive) in the experiment on A549. Also, the values for the GI50 in the experiment on SF-268, in the experiment with K562 and in the experiment with HCT-15 were > 100 µM (inactive), 41.9 µM (inactive) and over 100 µM, respectively.

In the case of `CCCCCCCCCCCOC(=S)NC(C)C`, the GI50 is 17 µM (inactive) in the experiment on HCC 2998; 19.3 µM (inactive) in the experiment on SK-OV-3; 15.8 µM (inactive) in the experiment with U-251; 19.2 µM (inactive) in the experiment on SK-MEL-2; 17.5 µM (inactive) in the experiment on HCT-116; 17 µM (inactive) in the experiment on SK-MEL-5. The GI50 with KM-20L2 was 16 µM (inactive); with OVCAR-8 it was 16.6 µM (inactive); in the experiment on HOP-62, 20.1 µM (inactive); in the experiment on NCI-H460, 21.3 µM (inactive); with A549, 21.4 µM (inactive); in the experiment on SF-268, 21.2 µM (inactive). For the same compound, the GI50 was 21.2 µM (inactive) in the experiment on K562, 17.5 µM with HCT-15 and 28.2 µM (inactive) in the experiment with TK-10.

Turning to `Cc1cc(C)nc(Nc2nc3cc([N+](=O)[O-])ccc3[nH]2)n1`, the GI50 with NCI-H226, in the experiment on HCC 2998, in the experiment with U-251, in the experiment with SK-MEL-2, with HCT-116 and in the experiment on SK-MEL-5 was > 100 µM (inactive) each time. Moreover, the GI50 in the experiment with KM-20L2, in the experiment with OVCAR-8, with HOP-62, in the experiment on NCI-H460, with A549 and in the experiment on SF-268 was > 100 µM (inactive) each time. For the same compound, the GI50 is > 100 µM (inactive) in the experiment on K562, over 100 µM in the experiment on HCT-15 and > 100 µM (inactive) with TK-10.

`COC1(C)CC2N(C(=O)c3ccccc3)N=C(c3ccccc3)CC2(C)O1` (configuration not stated): the GI50 with NCI-H226 was > 100 µM (inactive); with HCC 2998, 96.4 µM (inactive); in the experiment with SK-OV-3 it was > 100 µM (inactive); in the experiment on SK-MEL-2, > 100 µM (inactive); with HCT-116, > 100 µM (inactive); in the experiment on SK-MEL-5, > 100 µM (inactive). The GI50 in the experiment on KM-20L2 is > 100 µM (inactive); with OVCAR-8, > 100 µM (inactive); with HOP-62, > 100 µM (inactive); in the experiment with NCI-H460 it was 69.5 µM (inactive); in the experiment with A549, > 100 µM (inactive); in the experiment with SF-268 it was > 100 µM (inactive). The GI50 in the experiment with K562 is 88.9 µM (inactive); in the experiment on HCT-15, over 100 µM.

As for `COc1ccc(/C=C2\CN(C)Cc3c2nc(N)nc3-c2ccc(OC)cc2)cc1`, the GI50 was > 100 µM (inactive) in the experiment with NCI-H226; 16.6 µM (inactive) in the experiment on HCC 2998; > 100 µM (inactive) in the experiment with SK-OV-3; 67.5 µM (inactive) with U-251; 83.4 µM (inactive) in the experiment with SK-MEL-2; > 100 µM (inactive) in the experiment with HCT-116. For the same compound, the GI50 with SK-MEL-5 was 26.9 µM (inactive); in the experiment with KM-20L2, 82 µM (inactive); with OVCAR-8, 49.3 µM (inactive); with HOP-62, 64.1 µM (inactive); with NCI-H460, > 100 µM (inactive); with A549 it was 48.4 µM (inactive). The GI50 is > 100 µM (inactive) with SF-268, 70.5 µM (inactive) with K562 and > 100 µM (inactive) in the experiment on TK-10.
